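All cell lines were grown in 96-well plates and treated with compound for 48 hours. GI50 is the concentration that inhibits growth by half. The concentration for full growth arrest is given as TGI.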
Columns and labels:
Assay in all cases: DTP human tumour cell line panel, 48 h
HS 578T breast = tested on: HS 578T breast
SK-OV-3 ovarian = tested on: SK-OV-3 ovarian
786-0 renal = tested on: 786-0 renal
A498 renal = tested on: A498 renal
A549 NSCLC = tested on: A549 NSCLC
ACHN renal = tested on: ACHN renal
BT-549 breast = tested on: BT-549 breast
CAKI-1 renal = tested on: CAKI-1 renal
CCRF-CEM leukemia = tested on: CCRF-CEM leukemia
COLO 205 colon = tested on: COLO 205 colon
DU-145 prostate = tested on: DU-145 prostate
HCC-2998 colon = tested on: HCC-2998 colon
HCT-116 colon = tested on: HCT-116 colon
HCT-15 colon = tested on: HCT-15 colon
HL-60(TB) leukemia = tested on: HL-60(TB) leukemia
HOP-62 NSCLC = tested on: HOP-62 NSCLC
HT29 colon = tested on: HT29 colon
IGROV1 ovarian = tested on: IGROV1 ovarian
K-562 leukemia = tested on: K-562 leukemia
KM12 colon = tested on: KM12 colon
LOX IMVI melanoma = tested on: LOX IMVI melanoma
M14 melanoma = tested on: M14 melanoma
MALME-3M melanoma = tested on: MALME-3M melanoma
MCF7 breast = tested on: MCF7 breast
MDA-MB-231 breast = tested on: MDA-MB-231 breast
MDA-MB-435 = tested on: MDA-MB-435
MOLT-4 leukemia = tested on: MOLT-4 leukemia
NCI-H226 lung = tested on: NCI-H226 lung
NCI-H23 lung = tested on: NCI-H23 lung
NCI-H460 lung = tested on: NCI-H460 lung
NCI-H522 lung = tested on: NCI-H522 lung
NCI/ADR-RES ovarian = tested on: NCI/ADR-RES ovarian
OVCAR-3 ovarian = tested on: OVCAR-3 ovarian
OVCAR-4 ovarian = tested on: OVCAR-4 ovarian
OVCAR-5 ovarian = tested on: OVCAR-5 ovarian
OVCAR-8 ovarian = tested on: OVCAR-8 ovarian
PC-3 prostate = tested on: PC-3 prostate
RPMI-8226 leukemia = tested on: RPMI-8226 leukemia
RXF 393 renal = tested on: RXF 393 renal
SF-268 CNS = tested on: SF-268 CNS
SF-295 CNS = tested on: SF-295 CNS
SF-539 CNS = tested on: SF-539 CNS
SK-MEL-2 melanoma = tested on: SK-MEL-2 melanoma
SK-MEL-28 melanoma = tested on: SK-MEL-28 melanoma
SK-MEL-5 melanoma = tested on: SK-MEL-5 melanoma
SN12C renal = tested on: SN12C renal
SNB-19 CNS = tested on: SNB-19 CNS
SNB-75 CNS = tested on: SNB-75 CNS
SR leukemia = tested on: SR leukemia
SW-620 colon = tested on: SW-620 colon
T-47D breast = tested on: T-47D breast
TK-10 renal = tested on: TK-10 renal
U251 CNS = tested on: U251 CNS
UACC-257 melanoma = tested on: UACC-257 melanoma
UACC-62 melanoma = tested on: UACC-62 melanoma
UO-31 renal = tested on: UO-31 renal

## COc1cccc(/C=C/C(=O)c2c(C)nc3ccccc3c2/C=C/c2ccccc2)c1OC
HS 578T breast
  GI50: 3.59 µM
  TGI: > 100 µM
SK-OV-3 ovarian
  GI50: 54.1 µM
  TGI: > 100 µM

## CCCCCCCCCCNC(=O)CI
786-0 renal
  GI50: 1800 nM
  TGI: 3.37 µM
A498 renal
  GI50: 12.4 µM
  TGI: 26.1 µM
A549 NSCLC
  GI50: 5.44 µM
  TGI: 21.9 µM
ACHN renal
  GI50: 1650 nM
  TGI: 3.08 µM
BT-549 breast
  GI50: 1730 nM
  TGI: 3.35 µM
CAKI-1 renal
  GI50: 1560 nM
  TGI: 3.55 µM
CCRF-CEM leukemia
  GI50: 194 nM
  TGI: 482 nM
COLO 205 colon
  GI50: 2380 nM
  TGI: 6.01 µM
DU-145 prostate
  GI50: 1950 nM
  TGI: 3.72 µM
HCC-2998 colon
  GI50: 3.53 µM
  TGI: 11.5 µM
HCT-116 colon
  GI50: 1650 nM
  TGI: 3.07 µM
HCT-15 colon
  GI50: 1500 nM
  TGI: 3.31 µM
HL-60(TB) leukemia
  GI50: 1320 nM
  TGI: 3.12 µM
HOP-62 NSCLC
  GI50: 1950 nM
  TGI: 4.04 µM
HS 578T breast
  GI50: 2.53 µM
  TGI: 6.79 µM
HT29 colon
  GI50: 1980 nM
  TGI: 3.76 µM
IGROV1 ovarian
  GI50: 120 nM
  TGI: 288 nM
K-562 leukemia
  GI50: 938 nM
  TGI: 3.95 µM
KM12 colon
  GI50: 2130 nM
  TGI: 4.29 µM
LOX IMVI melanoma
  GI50: < 42.4 nM
  TGI: 104 nM
M14 melanoma
  GI50: 1590 nM
  TGI: 3.2 µM
MALME-3M melanoma
  GI50: 213 nM
  TGI: 494 nM
MCF7 breast
  GI50: 1970 nM
  TGI: 4.59 µM
MDA-MB-231 breast
  GI50: 1660 nM
  TGI: 3.29 µM
MDA-MB-435
  GI50: 1970 nM
  TGI: 4.51 µM
MOLT-4 leukemia
  GI50: 298 nM
  TGI: 1070 nM
NCI-H226 lung
  GI50: 2190 nM
  TGI: 8.84 µM
NCI-H23 lung
  GI50: 929 nM
  TGI: 2740 nM
NCI-H460 lung
  GI50: 3.05 µM
  TGI: 9.66 µM
NCI-H522 lung
  GI50: 151 nM
  TGI: 331 nM
NCI/ADR-RES ovarian
  GI50: 2320 nM
  TGI: 5.56 µM
OVCAR-3 ovarian
  GI50: 1870 nM
  TGI: 3.44 µM
OVCAR-4 ovarian
  GI50: 1870 nM
  TGI: 5.42 µM
OVCAR-5 ovarian
  GI50: 3.39 µM
  TGI: 10.4 µM
OVCAR-8 ovarian
  GI50: 1550 nM
  TGI: 4.52 µM
PC-3 prostate
  GI50: 1800 nM
  TGI: 3.56 µM
RPMI-8226 leukemia
  GI50: 2210 nM
  TGI: 5.02 µM
RXF 393 renal
  GI50: 1740 nM
  TGI: 3.53 µM
SF-268 CNS
  GI50: 1860 nM
  TGI: 3.65 µM
SF-295 CNS
  GI50: 4.58 µM
  TGI: 13.2 µM
SF-539 CNS
  GI50: 1780 nM
  TGI: 3.22 µM
SK-MEL-2 melanoma
  GI50: 1940 nM
  TGI: 4.02 µM
SK-MEL-28 melanoma
  GI50: 1950 nM
  TGI: 3.91 µM
SK-MEL-5 melanoma
  GI50: 1960 nM
  TGI: 4.72 µM
SK-OV-3 ovarian
  GI50: 1.89 µM
  TGI: 3.38 µM
SN12C renal
  GI50: 1210 nM
  TGI: 2800 nM
SNB-19 CNS
  GI50: 11.2 µM
  TGI: 23.9 µM
SNB-75 CNS
  GI50: 1640 nM
  TGI: 3.09 µM
SR leukemia
  GI50: 204 nM
  TGI: 640 nM
SW-620 colon
  GI50: 1770 nM
  TGI: 3.65 µM
T-47D breast
  GI50: 829 nM
  TGI: 2410 nM
TK-10 renal
  GI50: 1760 nM
  TGI: 3.33 µM
U251 CNS
  GI50: 1580 nM
  TGI: 3.14 µM
UACC-257 melanoma
  GI50: 1630 nM
  TGI: 3.39 µM
UACC-62 melanoma
  GI50: 1690 nM
  TGI: 3.28 µM
UO-31 renal
  GI50: 1580 nM
  TGI: 3.04 µM
